Data taken from patent US20250032477A1, “COMPOUNDS, PHARMACEUTICAL COMPOSITIONS, AND METHODS FOR THE TREATMENT, PREVENTION, OR MANAGEMENT OF HYPERPROLIFERATIVE DISORDERS” (VINCERX PHARMA GMBH, priority 2021, published 2025).
Where a name gives a salt, the structure may show the parent alone. Read-outs that look alike come from different tables or passages of the source.

Columns and labels:
HT29 [1] = test: Cytotoxicity in vitro in the presence and absence of elastase (MTT); type: cell-based, human
Procedure: (§1) Cultivation of cells was performed according to standard procedures with the media recommended by the provider. The cells, in a total volume of 100 μL, were seeded in a 96-well plate with a white bottom (#3610). After a 24 h incubation period at 37° C. and […], the medium was exchanged by adding 90 μL fresh medium. The treatment started by adding the test compound in 10 μL of culture medium to the cells in triplicates. Concentrations ranging from 10^−5 M to 10^−13 M were chosen. Two identically treated sets of samples were prepared. One set was treated with the test compound alone, whereas to the second set the compound and 10 nM elastase was added followed by a 72 h incubation period at 37° C. and 5% CO2. The proliferation was detected using the MTT assay (ATCC). At the end of the incubation period the MTT reagent was added to all samples for 4 h. Lysis of the cells followed by addition of the detergent was done overnight. The formed dye was detected at 570 nm. The proliferation of untreated but otherwise identically handled cells was define as the […].

786-O [2] = test: as above; type: cell-based, human
Procedure: as §1

NCI H292 [3] = test: as above; type: cell-based, human
Procedure: as §1

SUM149 [4] = test: as above; type: cell-based
Procedure: as §1

SUM149 [5] = test: Cytotoxicity assay (Version 2), automated, AC50, with or without elastase; type: cell-based
Procedure: as §1
(§2) The Cytotoxicity assay (Version 2) was performed as above described. Some changes were applied as the assays were performed in an automated fashion and the IC50 values determination was changed. Here the change in metabolic activity of the cells, in percent, was calculated by normalization of the measured values to the absorbance values of medium containing wells without cells (=−100%) and the absorbance of the DMSO-treated cells (=0%). AC50 values (activity concentration at −50%) were determined by means of a 4 parameter Hill-fit using GeneData Screener software.

HT29 [6] = test: as above; type: cell-based, human
Procedure: as §1, §2

786-O [7] = test: as above; type: cell-based, human
Procedure: as §1, §2

NCI H292 [8] = test: as above; type: cell-based, human
Procedure: as §1, §2

[9] = read-out: 786-O IC50 w elastase
[10] = read-out: NCI H292 IC 50 w elastase
[11] = read-out: SUM149 IC50 w elastase
[12] = read-out: SUM149 AC50 +elastase
[13] = read-out: SUM149 AC50 −elastase
[14] = read-out: NCI H292 AC50 +elastase
[15] = read-out: NCI H292 AC50 −elastase

Compound: CCCNC(=O)Nc1cccc(S(=O)(=O)Nc2cccc([C@@H](CC(=O)O)NC(=O)Nc3ccc(NC(=O)NCCOCCOCCOCCC(=O)N[C@@H](CC(=O)O)C(=O)N4CCC[C@H]4C(=O)N[C@H](C(=O)O[C@]4(CC)C(=O)OCc5c4cc4n(c5=O)Cc5c-4nc4cc(F)c(C)c6c4c5[C@@H](NC(=O)OCc4ccccc4)CC6)C(C)C)cc3)c2)c1 [Compound 3, (1S,9S)-1-{[(benzyloxy)carbonyl]amino}-9-ethyl-5-fluoro-4-methyl-10,13-dioxo-2,3,9,10,13,15-hexahydro-1H,12H-benzo[de]pyrano[3′,4′:6,7] indolizino[1,2-b]quinolin-9-yl N-(14-{4-[({(1R)-2-carboxy-1-[3-({3-[(propylcarbamoyl)amino]benzene-1-sulfonyl}amino)phenyl]ethyl}carbamoyl)amino]anilino}-14-oxo-4,7,10-trioxa-13-azatetradecanan-1-oyl)-L-alpha-aspartyl-L-prolyl-L-valinate]
- IC50 (HT29 [1]; read-out: HT29 IC50 w elastase): 0.1 to 1 nM
- IC50 (HT29 [1]; read-out: HT29 IC50 w/o): > 100 nM
- IC50 (786-O [2]; [9]): 0.1 to 1 nM
- IC50 (786-O [2]; read-out: 786-O IC50 w/o): 10 to 100 nM
- IC50 (NCI H292 [3]; [10]): 0.01 to 0.1 nM
- IC50 (NCI H292 [3]; read-out: NCI H292 IC 50 w/o): 1.1 to 10 nM
- IC50 (SUM149 [4]; [11]): 0.01 to 0.1 nM
- IC50 (SUM149 [4]; read-out: SUM149 IC50 w/o): 10 to 100 nM

Compound: CCCNC(=O)Nc1cccc(S(=O)(=O)Nc2cccc([C@@H](CC(=O)O)NC(=O)Nc3ccc(NC(=O)NCCOCCOCCOCCC(=O)NCCCC[C@H](NC(=O)CCOCCOCCOCCNC(=O)Nc4ccc(NC(=O)N[C@H](CC(=O)O)c5cccc(NS(=O)(=O)c6cccc(NC(=O)NCCC)c6)c5)cc4)C(=O)NCCOCCOCCOCCC(=O)N[C@@H](CC(=O)O)C(=O)N4CCC[C@H]4C(=O)N[C@H](C(=O)O[C@]4(CC)C(=O)OCc5c4cc4n(c5=O)Cc5cc6cc7c(cc6nc5-4)OCO7)C(C)C)cc3)c2)c1 [Compound 22]
- AC50 (SUM149 [5]; [12]): < 1 nM
- AC50 (SUM149 [5]; [13]): 11 to 100 nM
- AC50 (HT29 [6]; read-out: HT29 AC50 +elastase): 1.1 to 10 nM
- AC50 (HT29 [6]; read-out: HT29 AC50 −elastase): > 100 nM
- AC50 (786-O [7]; read-out: 786-O AC50 +elastase): < 1 nM
- AC50 (786-O [7]; read-out: 786-O AC50 −elastase): > 100 nM
- AC50 (NCI H292 [8]; [14]): < 1 nM
- AC50 (NCI H292 [8]; [15]): 1.1 to 10 nM

Compound: CC[C@@]1(O)C(=O)OCc2c1cc1n(c2=O)Cc2c-1nc1cc(F)c(C)c3c1c2[C@@H](N(C)C)CC3 [Compound 18, (1S,9S)-1-(dimethylamino)-9-ethyl-5-fluoro-9-hydroxy-4-methyl-1,2,3,9,12,15-hexahydro-10H,13H-benzo[de]pyrano[3′,4′:6,7]indolizino[1,2-b]quinoline-10,13-dione]
- AC50 (SUM149 [5]; SUM149, read-out: SUM149 AC50 +elastase): 1.1 to 10 nM
- AC50 (SUM149 [5]; SUM149, read-out: SUM149 AC50 −elastase): 1.1 to 10 nM
- AC50 (HT29 [6]; Homo sapiens, HT-29, read-out: HT29 AC50 +elastase): 1.1 to 10 nM
- AC50 (HT29 [6]; Homo sapiens, HT-29, read-out: HT29 AC50 −elastase): 11 to 100 nM
- AC50 (786-O [7]; Homo sapiens, 786-0, read-out: 786-O AC50 +elastase): 11 to 100 nM
- AC50 (786-O [7]; Homo sapiens, 786-0, read-out: 786-O AC50 −elastase): 11 to 100 nM
- AC50 (NCI H292 [8]; Homo sapiens, NCI-H292, read-out: NCI H292 AC50 +elastase): 1.1 to 10 nM
- AC50 (NCI H292 [8]; Homo sapiens, NCI-H292, read-out: NCI H292 AC50 −elastase): 1.1 to 10 nM

Compound: CCCNC(=O)Nc1cccc(S(=O)(=O)Nc2cccc([C@@H](CC(=O)O)NC(=O)Nc3ccc(NC(=O)NCCOCCOCCOCCC(=O)NCCCC[C@H](NC(=O)CCOCCOCCOCCNC(=O)Nc4ccc(NC(=O)N[C@H](CC(=O)O)c5cccc(NS(=O)(=O)c6cccc(NC(=O)NCCC)c6)c5)cc4)C(=O)NCCOCCOCCOCCC(=O)N[C@@H](CC(=O)O)C(=O)N4CCC[C@H]4C(=O)N[C@H](C(=O)O[C@]4(CC)C(=O)OCc5c4cc4n(c5=O)Cc5c-4nc4cc(F)c(C)c6c4c5[C@@H](NC(C)=O)CC6)C(C)C)cc3)c2)c1 [Compound 24]
- AC50 (SUM149 [5]; [12]): 1.1 to 10 nM
- AC50 (SUM149 [5]; [13]): 11 to 100 nM
- AC50 (HT29 [6]; read-out: HT29 AC50 +elastase): 11 to 100 nM
- AC50 (HT29 [6]; read-out: HT29 AC50 −elastase): > 100 nM
- AC50 (786-O [7]; read-out: 786-O AC50 +elastase): 1.1 to 10 nM
- AC50 (786-O [7]; read-out: 786-O AC50 −elastase): > 100 nM
- AC50 (NCI H292 [8]; [14]): 1.1 to 10 nM
- AC50 (NCI H292 [8]; [15]): > 100 nM

Compound: CCCNC(=O)Nc1cccc(S(=O)(=O)Nc2cccc([C@H](CC(=O)O)NC(=O)Nc3ccc(NC(=O)NCCOCCOCCOCCC(=O)N[C@@H](CC(=O)O)C(=O)N4CCC[C@H]4C(=O)N[C@H](C(=O)O[C@]4(CC)C(=O)OCc5c4cc4n(c5=O)Cc5cc6cc7c(cc6nc5-4)OCO7)C(C)C)cc3)c2)c1 [Compound 15, (7S)-7-ethyl-8,11-dioxo-7,8,11,13-tetrahydro-2H,10H-[1,3]dioxolo[4,5-g]pyrano [3′,4′:6,7]indolizino[1,2-b]quinolin-7-yl N-(14-{4-[({(1S)-2-carboxy-1-[3-({3-[(propylcarbamoyl)amino]benzene-1-sulfonyl}amino)phenyl]ethyl}carbamoyl)amino]anilino}-14-oxo-4,7,10-trioxa-13-azatetradecanan-1-oyl)-L-alpha-aspartyl-L-prolyl-L-valinate-bis sodium salt]
- IC50 (HT29 [1]; read-out: HT29 IC50 w elastase): 0.01 to 0.1 nM
- IC50 (HT29 [1]; read-out: HT29 IC50 w/o): 10 to 100 nM
- IC50 (786-O [2]; [9]): 0.01 to 0.1 nM
- IC50 (786-O [2]; read-out: 786-O IC50 w/o): 10 to 100 nM
- IC50 (NCI H292 [3]; [10]): 0.01 to 0.1 nM
- IC50 (NCI H292 [3]; read-out: NCI H292 IC 50 w/o): 1.1 to 10 nM
- IC50 (SUM149 [4]; [11]): < 0.01 nM
- IC50 (SUM149 [4]; read-out: SUM149 IC50 w/o): 1.1 to 10 nM

Compound: CCCNC(=O)Nc1cccc(S(=O)(=O)Nc2cccc([C@@H](CC(=O)O)NC(=O)Nc3ccc(NC(=O)NCCN(C)CCN(C)CCN(C)CC(=O)N[C@@H](CC(N)=O)C(=O)N4CCC[C@H]4C(=O)N[C@H](C(=O)O[C@]4(CC)C(=O)OCc5c4cc4n(c5=O)Cc5cc6cc7c(cc6nc5-4)OCO7)C(C)C)cc3)c2)c1 [Compound 6, (7S)-7-ethyl-8,11-dioxo-7,8,11,13-tetrahydro-2H,10H-[1,3]dioxolo[4,5-g]pyrano[3′,4′:6,7] indolizino[1,2-b]quinolin-7-yl N-{2-[{2-[{2-[({4-[({(1R)-2-carboxy-1-[3-({3-[(propylcarbamoyl)amino]benzene-1-sulfonyl}amino)phenyl]ethyl}carbamoyl)amino]phenyl}carbamoyl)amino]ethyl}(methyl)amino]ethyl}(methyl)amino]ethyl}-N-methylglycyl-L-asparaginyl-L-prolyl-L-valinate]
- IC50 (HT29 [1]; HT29 cells, with 10 nM elastase, 72 h, MTT, read-out: HT29 IC50 w elastase): 0.01 to 0.1 nM
- IC50 (HT29 [1]; HT29 cells, without elastase, 72 h, MTT, read-out: HT29 IC50 w/o): 1.1 to 10 nM
- IC50 (786-O [2]; 786-O cells, with 10 nM elastase, 72 h, MTT, read-out: 786-O IC50 w elastase): 0.01 to 0.1 nM
- IC50 (786-O [2]; 786-O cells, without elastase, 72 h, MTT, read-out: 786-O IC50 w/o): 1.1 to 10 nM
- IC50 (NCI H292 [3]; NCI H292 cells, with 10 nM elastase, 72 h, MTT, read-out: NCI H292 IC 50 w elastase): 0.01 to 0.1 nM
- IC50 (NCI H292 [3]; NCI H292 cells, without elastase, 72 h, MTT, read-out: NCI H292 IC 50 w/o): 1.1 to 10 nM
- IC50 (SUM149 [4]; SUM149 cells, with 10 nM elastase, 72 h, MTT, read-out: SUM149 IC50 w elastase): < 0.01 nM
- IC50 (SUM149 [4]; SUM149 cells, without elastase, 72 h, MTT, read-out: SUM149 IC50 w/o): 0.1 to 1 nM

Compound: CCCNC(=O)Nc1cccc(S(=O)(=O)Nc2cccc([C@H](CC(=O)O)NC(=O)Nc3ccc(NC(=O)NCCOCCOCCOCCC(=O)N[C@@H](CC(=O)O)C(=O)N4CCC[C@H]4C(=O)N[C@H](C(=O)O[C@]4(CC)C(=O)OCc5c4cc4n(c5=O)Cc5c-4nc4cc(F)c(C)c6c4c5[C@@H](NC(C)=O)CC6)C(C)C)cc3)c2)c1 [Compound 13, disodium (1S,9S)-1-acetamido-9-ethyl-5-fluoro-4-methyl-10,13-dioxo-2,3,9,10,13,15-hexahydro-1H,12H-benzo[de]pyrano[3′,4′:6,7]indolizino[1,2-b]quinolin-9-yl 1-[(2S)-2-(carboxylatomethyl)-17-{4-[({(1S)-2-carboxylato-1-[3-({3-[(propylcarbamoyl)amino]benzene-1-sulfonyl}amino)phenyl]ethyl}carbamoyl)amino]anilino}-4,17-dioxo-7,10,13-trioxa-3,16-diazaheptadecanan-1-oyl]-L-prolyl-L-valinate]
- IC50 (HT29 [1]; read-out: HT29 IC50 w elastase): 0.1 to 1 nM
- IC50 (HT29 [1]; read-out: HT29 IC50 w/o): > 100 nM
- IC50 (786-O [2]; [9]): 0.01 to 0.1 nM
- IC50 (786-O [2]; read-out: 786-O IC50 w/o): 10 to 100 nM
- IC50 (NCI H292 [3]; [10]): 0.01 to 0.1 nM
- IC50 (NCI H292 [3]; read-out: NCI H292 IC 50 w/o): 1.1 to 10 nM
- IC50 (SUM149 [4]; [11]): 0.01 to 0.1 nM
- IC50 (SUM149 [4]; read-out: SUM149 IC50 w/o): 1.1 to 10 nM
